Activity calls are given as the source filed them. The calls are words filed in the database; no cut-off is given here.
Assays:
[1] = Toxicity in zebrafish embryo at […] measured after 96 hrs post fertilization; parameters: species or system Danio rerio; conditions: in vivo
HT-29 [2] = assay: Inhibition of cell migration in human HT-29 cells at 0.5 uM measured at 24 hrs by wound healing assay (reference value: 85.7%); values are per cent of control; conditions: HT-29, 24 h
A549 [3] = assay: Anticancer activity against human A549 cells cultured as 3D spheroids assessed as suppression of cell growth at 10 uM incubated for 48 hrs by celltiter-glo luminescent assay; type: functional, cell-based
A549 [4] = assay: Induction of cell cycle arrest in human A549 cells assessed as accumulation at sub G1 at 2.5 to 5 uM incubated for 24 to 48 hrs by PI-staining based flow cytometric analysis; type: functional; conditions: dose 2.5-5 µM, time 24-48 hrs
[5] = Toxicity in zebrafish embryo assessed as formation of spinal curvature at 0.5 to 2.5 uM measured after 96 hrs post fertilization by microscopic analysis; parameters: species or system Danio rerio; conditions: in vivo, dose 0.5-2.5 µM
A549 [6] = assay: Induction of apoptosis in human A549 cells assessed as increase in PARP level at 2.5 to 5 uM incubated for 48 hrs by Western blot analysis; type: functional, cell-based; conditions: dose 2.5-5 µM
NCI-H1299 = assay: Anticancer activity against human NCI-H1299 cells assessed as reduction in cell viability at 10 to 40 uM incubated for 48 hrs by MTT assay; type: functional, cell-based; conditions: dose 10-40 µM
[7] = Toxicity in zebrafish embryo assessed as hatching rate at 0.5 to 2.5 uM measured after 72 hrs post fertilization by microscopic analysis; parameters: species or system Danio rerio; conditions: in vivo, dose 0.5-2.5 µM
A549 [8] = assay: Induction of apoptosis in human A549 cells assessed as increase in caspase 3 level at 2.5 to 5 uM incubated for 48 hrs by Western blot analysis; type: functional, cell-based; conditions: dose 2.5-5 µM
A549 [9] = assay: Induction of cell cycle arrest in human A549 cells assessed as effect on p21 level at 2.5 to 5 uM incubated for 48 hrs by Western blot analysis; type: functional, cell-based; conditions: dose 2.5-5 µM
A549 [10] = assay: Inhibition of cell migration in human A549 cells at 1.25 uM measured immediately by wound healing assay (reference value: 100%); values are per cent of control
HT-29 [11] = assay: cells; type: functional, cell-based; conditions: Homo sapiens, HT-29, 48 h
Description: Anticancer activity against human HT-29 cells assessed as inhibition of cell growth measured for 48 hrs by MTT assay

A549 [12] = assay: Induction of cell cycle arrest in human A549 cells assessed as effect on cyclin B1 level at 2.5 to 5 uM incubated for 48 hrs by Western blot analysis; type: functional, cell-based; conditions: dose 2.5-5 µM
[13] = Toxicity in zebrafish embryo assessed as yolk sac edema at 0.5 to 2.5 uM measured after 96 hrs post fertilization by microscopic analysis; parameters: species or system Danio rerio; conditions: in vivo, dose 0.5-2.5 µM
HT-29 [14] = assay: Inhibition of cell migration in human HT-29 cells assessed as upregulation of E-cadherin level at 1 to 2 uM incubated for 48 hrs by Western blot analysis; type: functional, cell-based; conditions: dose 1-2 µM
[15] = Toxicity in zebrafish embryo assessed as survival rate at 0.5 to 2.5 uM measured after 72 hrs post fertilization; parameters: species or system Danio rerio; conditions: in vivo, dose 0.5-2.5 µM
HT-29 [16] = assay: Inhibition of cell migration in human HT-29 cells assessed as downregulation of slug level at 1 to 2 uM incubated for 48 hrs by Western blot analysis; type: functional, cell-based; conditions: dose 1-2 µM
[17] = Toxicity in zebrafish embryo assessed as formation of scoliosis at 0.5 to 2.5 uM measured after 96 hrs post fertilization by microscopic analysis; parameters: species or system Danio rerio; conditions: in vivo, dose 0.5-2.5 µM
[18] = biological target: T1, Histone deacetylase (Homo sapiens) (UniProt Q13547+O15379+Q9UBN7+Q92769+Q9UQL6+Q8WUI4+Q9BY41+Q96DB2+P56524+Q9UKV0+Q969S8); assay: Inhibition of HDAC in human HT-29 cells incubated for 48 hrs by Western blot analysis; type: cell-based; conditions: dose 0.1-10 µM
[19] = biological target: T1, Histone deacetylase (Homo sapiens); assay: Inhibition of HDAC in human A549 cells incubated for 48 hrs by Western blot analysis; type: cell-based; conditions: dose 0.1-10 µM
[20] = biological target: T1, Histone deacetylase (Homo sapiens); assay: Inhibition of HDAC in human HT-29 cells assessed as increase in histone acetylation level at 1 to 2 uM incubated for 48 hrs by Western blot analysis; type: cell-based; conditions: dose 1-2 µM
A549 [21] = assay: Anticancer activity against human A549 cells assessed as suppression of cell viability at 10 uM incubated for 48 hrs by MTT assay; type: functional, cell-based
A549 [22] = assay: Inhibition of colony formation in human A549 cells at 125 to 250 nM measured for 10 days by crystal violet staining based analysis; type: functional, cell-based; conditions: dose 125-250 nM, time 10.0 day
A549 [23] = assay: Induction of apoptosis in human A549 cells assessed as upregulation of p53 expression at 2.5 to 5 uM incubated for 48 hrs by Western blot analysis; type: functional, cell-based; conditions: dose 2.5-5 µM
HT-29 [24] = assay: Induction of cell cycle arrest in human HT-29 cells assessed as accumulation at G2/M phase at 2.5 to 5 uM incubated for 24 to 48 hrs by PI-staining based flow cytometric analysis; type: functional; conditions: dose 2.5-5 µM, time 24-48 hrs
[25] = Toxicity in zebrafish embryo assessed as formation of spinal curvature at 1 to 5 uM measured after 96 hrs post fertilization by microscopic analysis; parameters: species or system Danio rerio; conditions: in vivo, dose 1-5 µM
HT-29 [26] = assay: Inhibition of cell migration in human HT-29 cells assessed as downregulation of vimentin level at 1 to 2 uM incubated for 48 hrs by Western blot analysis; type: functional, cell-based; conditions: dose 1-2 µM
A549 [27] = assay: Inhibition of cell migration in human A549 cells at 1.25 uM measured at 48 hrs by wound healing assay (reference value: 42.3%); values are per cent of control; conditions: A549, 48 h
A549 [28] = assay: Anticancer activity against human A549 cells assessed as viable cells by measuring green fluorescence intensity measured for 48 hrs by Calcein AM staining based fluorescent microscopic analysis; type: functional, cell-based; conditions: dose 1-20 µM
HT-29 [29] = assay: Anticancer activity against human HT-29 cells assessed as suppression of cell viability at 10 uM incubated for 48 hrs by MTT assay; type: functional, cell-based
HT-29 [30] = assay: Inhibition of colony formation in human HT-29 cells at 50 to 100 nM measured for 10 days by crystal violet staining based analysis; type: functional, cell-based; conditions: dose 50-100 nM, time 10.0 day
HT-29 [31] = assay: Inhibition of cell migration in human HT-29 cells at 0.5 uM measured at 48 hrs by wound healing assay (reference value: 73.2%); values are per cent of control; conditions: HT-29, 48 h
HT-29 [32] = assay: Anticancer activity against human HT-29 cells assessed as viable cells by measuring green fluorescence intensity measured for 48 hrs by Calcein AM staining based fluorescent microscopic analysis; type: functional, cell-based; conditions: dose 1-20 µM
[33] = Toxicity in zebrafish embryo assessed as effect on body length at 0.5 to 2.5 uM measured after 96 hrs post fertilization by microscopic analysis; parameters: species or system Danio rerio; conditions: in vivo, dose 0.5-2.5 µM
A549 [34] = assay: Induction of cell cycle arrest in human A549 cells assessed as accumulation at G2/M phase at 2.5 to 5 uM incubated for 24 to 48 hrs by PI-staining based flow cytometric analysis; type: functional; conditions: dose 2.5-5 µM, time 24-48 hrs
A549 [35] = assay: Inhibition of cell migration in human A549 cells at 1.25 uM measured at 24 hrs by wound healing assay (reference value: 68.4%); type: functional
[36] = biological target: T1, Histone deacetylase (Homo sapiens); assay: Inhibition of HDAC in human HT-29 cells assessed as increase in acetyl alpha-tubulin level at 1 to 2 uM incubated for 48 hrs by Western blot analysis; type: cell-based; conditions: dose 1-2 µM
HT-29 [37] = assay: Inhibition of cell migration in human HT-29 cells at 0.5 uM measured immediately by wound healing assay (reference value: 100%); values are per cent of control
A549 [38] = assay: cells; type: functional, cell-based; conditions: Homo sapiens, A549, 48 h
Description: Anticancer activity against human A549 cells assessed as inhibition of cell growth measured for 48 hrs by MTT assay

**Q.** With `NC(=O)NO` [HYDROXYUREA] as the molecule, how does the Activity [1] read?
**A.** Toxic

**Q.** Which wound area remaining at 0.5 µM (HT-29 [2]) does the source give for `COc1ccc(S(=O)(=O)n2cc(Cc3ccc(C(=O)Nc4ccccc4N)cc3)c3ccccc32)cc1` here?
**A.** 93.8%

**Q.** What about the Activity (A549 [3]) of the same molecule?
**A.** Active

**Q.** And the Activity (A549 [4])?
**A.** Active

**Q.** What about the Activity [5] of the same molecule?
**A.** Non-Toxic

**Q.** What about the Activity (A549 [6]) of the same molecule?
**A.** Active

**Q.** And the Activity (NCI-H1299)?
**A.** Active

**Q.** What about the Activity [7] of the same molecule?
**A.** 100%

**Q.** And the Activity (A549 [8])?
**A.** Active

**Q.** What about the Activity (A549 [9]) of the same molecule?
**A.** Active

**Q.** And the wound area remaining at 1.25 µM (A549 [10])?
**A.** 100%

**Q.** What about the IC50 (HT-29 [11]) of the same molecule?
**A.** 920 nM

**Q.** And the Activity (A549 [12])?
**A.** Active

**Q.** What about the Activity [13] of the same molecule?
**A.** Non-Toxic

**Q.** And the inhibition (HT-29 [14])?
**A.** Active

**Q.** And the survival at 72 h, up to 2.5 µM [15]?
**A.** ~100%

**Q.** And the inhibition (HT-29 [16])?
**A.** Active

**Q.** And the Activity [17]?
**A.** Non-Toxic

**Q.** What about the inhibition [18] of the same molecule?
**A.** Active

**Q.** What about the inhibition [19] of the same molecule?
**A.** Active

**Q.** And the inhibition [20]?
**A.** Active

**Q.** What about the Activity (A549 [21]) of the same molecule?
**A.** Active

**Q.** And the inhibition (A549 [22])?
**A.** Active

**Q.** What about the Activity (A549 [23]) of the same molecule?
**A.** Active

**Q.** What about the Activity (HT-29 [24]) of the same molecule?
**A.** Active

**Q.** What about the Activity [25] of the same molecule?
**A.** Non-Toxic

**Q.** What about the inhibition (HT-29 [26]) of the same molecule?
**A.** Active

**Q.** What about the wound area remaining at 1.25 µM (A549 [27]) of the same molecule?
**A.** 53.3%

**Q.** And the Activity (A549 [28])?
**A.** Dose-Dependent Effect

**Q.** What about the Activity (HT-29 [29]) of the same molecule?
**A.** Active

**Q.** And the inhibition (HT-29 [30])?
**A.** Active

**Q.** And the wound area remaining at 0.5 µM (HT-29 [31])?
**A.** 90.1%

**Q.** And the Activity (HT-29 [32])?
**A.** Dose-Dependent Effect

**Q.** And the Activity [33]?
**A.** Non-Toxic

**Q.** And the Activity (A549 [34])?
**A.** Active

**Q.** And the inhibition at 1.25 µM (A549 [35])?
**A.** 77.4%

**Q.** What about the inhibition [36] of the same molecule?
**A.** Active

**Q.** What about the wound area remaining at 0.5 µM (HT-29 [37]) of the same molecule?
**A.** 100%

**Q.** And the IC50 (A549 [38])?
**A.** 2520 nM
